Entries after “also recorded” stand apart in the source; their conditions may differ.
Assays:
[1] = tested on: polymerase derived from two parental polymerases, Pfu and DeepVent, and fused with an Sso7d; assay: Effect of surfactant additives on PCR yield (agarose gel); type: biochemical; conditions: for PCR yield: additive in PCR reaction mixture, 20 ng template DNA, FIG. 1
Description: The effect of various surfactants on polymerase activity and yield in a PCR reaction mixture was tested. A polymerase derived from two parental polymerases, Pfu and DeepVent, and fused with an Sso7d, was formulated in a variety of reaction mixtures in an effort to identify reaction components that improve PCR yield.
A reaction mixture comprising polymerase, Tris-HCL pH 9.0, KCl, ammonium sulfate, 20 ng template DNA and target primers was tested with one or more additional components added as follows (results shown in FIG. 1):
Ranges of concentration of CTAB and SDS were tested and additional components such as octyl b-D-glucopyranoside (OGP) and bovine serum albumin (BSA) were also tested. See, FIG. 2. The lanes of FIG. 2. are described in Table 2 below:
(§1) In view of the surprising success of the reaction mixture comprising SDS and CTAB, a 5× stock solution was generated.

[2] = Precipitate formation in 5× stock solution; type: physicochemical
Text: as §1

SMILES: C[C@H](CCC(=O)NCCC[N+](C)(C)CCCS(=O)(=O)[O-])[C@H]1CC[C@H]2[C@@H]3[C@H](O)C[C@@H]4C[C@H](O)CC[C@]4(C)[C@H]3C[C@H](O)[C@]12C [CHAPS, 3-[(3-cholamidopropyl)dimethylammonio]-1-propanesulfonate]
- interference with PCR ([1]; CHAPS in 5× stock solution used in PCR reactions, data not shown): did not interfere with PCR
- precipitate in stock solution ([2]; 5× stock solution contained 1% CHAPS): no precipitate was observed
- precipitate in stock solution ([2]; CHAPS added to the 5× stock solution): prevented formation of a precipitate

SMILES: CCCCCCCCCCCCCCCC[N+](C)(C)C.[Br-] [CTAB, cetyl trimethylammonium bromide]
- PCR yield [1]: did not improve PCR yield; also recorded: does not provide any apparent benefit

SMILES: CCCCCCCCCCCCOS(=O)(=O)[O-].[Na+] [SDS, sodium dodecyl sulfate]
- PCR yield ([1]; sulfate): did not improve PCR yield; also recorded: does not provide any apparent benefit

Reference: patent publication US20160032269A1, “BUFFERS FOR USE WITH POLYMERASES” (priority 2014, published 2016)
